Measured values published in PubChem BioAssay AID2060884 (Molecular Pharmacology Branch, DTP, NCI, 2025).
“And” between values parts separate entries of the source, which are not always exact repeats. Equal values may be shown once. Values belong to the molecule of their own block, whether it stands above or below them.

Test system: NCI-H929 complex spheroids, viability % test/control
Assay: Anticancer human tumor NCI-H929 cell line growth inhibition [RAS];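 also: compound exposure lasted seven days before viability was read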;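 as to viability, T/C: 100% = DMSO vehicle control viability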
Settings: for viability, T/C: stronger effect = lower value
In short: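 Multi-cell-type spheroids: tumor cells plus HUVEC endothelial cells and mesenchymal stem cells. RAS-pathway inhibitors were combined with targeted agents, each dosed in half-log steps down from clinical Cmax, or from 10 microM when Cmax was unknown.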

[1] = curve of first compound, second compound 0.0316 µM
[2] = curve of first compound, second compound 0.1 µM
[3] = curve of first compound, second compound 0.316 µM
[4] = curve of first compound, second compound 1 µM
[5] = second compound 0.0316 µM, first compound 0.0316 µM
[6] = second compound 0.0316 µM, first compound 0.1 µM
[7] = second compound 0.0316 µM, first compound 0.316 µM
[8] = second compound 0.0316 µM, first compound 1 µM
[9] = second compound 0.0316 µM, first compound 3.16 µM
[10] = second compound 0.0316 µM, first compound 10 µM
[11] = second compound 0.1 µM, first compound 0.0316 µM
[12] = second compound 0.1 µM, first compound 0.1 µM
[13] = second compound 0.1 µM, first compound 0.316 µM
[14] = second compound 0.1 µM, first compound 1 µM
[15] = second compound 0.1 µM, first compound 3.16 µM
[16] = second compound 0.1 µM, first compound 10 µM
[17] = second compound 0.316 µM, first compound 0.0316 µM
[18] = second compound 0.316 µM, first compound 0.1 µM
[19] = second compound 0.316 µM, first compound 0.316 µM
[20] = second compound 0.316 µM, first compound 1 µM
[21] = second compound 0.316 µM, first compound 3.16 µM
[22] = second compound 0.316 µM, first compound 10 µM
[23] = second compound 1 µM, first compound 0.0316 µM
[24] = second compound 1 µM, first compound 0.1 µM
[25] = second compound 1 µM, first compound 0.316 µM
[26] = second compound 1 µM, first compound 1 µM
[27] = second compound 1 µM, first compound 3.16 µM
[28] = second compound 1 µM, first compound 10 µM
[29] = curve of first compound, second compound 0.00316 µM
[30] = curve of first compound, second compound 0.01 µM
[31] = second compound 0.00316 µM, first compound 0.0316 µM
[32] = second compound 0.00316 µM, first compound 0.1 µM
[33] = second compound 0.00316 µM, first compound 0.316 µM
[34] = second compound 0.00316 µM, first compound 1 µM
[35] = second compound 0.00316 µM, first compound 3.16 µM
[36] = second compound 0.00316 µM, first compound 10 µM
[37] = second compound 0.01 µM, first compound 0.0316 µM
[38] = second compound 0.01 µM, first compound 0.1 µM
[39] = second compound 0.01 µM, first compound 0.316 µM
[40] = second compound 0.01 µM, first compound 1 µM
[41] = second compound 0.01 µM, first compound 3.16 µM
[42] = second compound 0.01 µM, first compound 10 µM

IC50 [1]: > 10 µM
IC50 [2]: > 10 µM
IC50 [3]: > 10 µM
IC50 [4]: > 10 µM
IC50 (curve of first compound, second compound 3.16 µM): 9.56 µM
IC50 (curve of first compound, second compound 10 µM): 4.91 µM
SMILES: CC(Nc1ccc2c(c1)OCCn1cc(N3C(=O)OCC3C(F)F)nc1-2)C(N)=O (stereo unspecified) + C#Cc1c(F)ccc2cc(O)cc(-c3ncc4c(N5CC6CCC(C5)N6)nc(OCC56CCCN5CC(F)C6)nc4c3F)c12
viability, T/C [5]: 99.8%
viability, T/C [6]: 102%
viability, T/C [7]: 112%
viability, T/C [8]: 110%
viability, T/C [9]: 114%
viability, T/C [10]: 66.2%
viability, T/C [11]: 95%
viability, T/C [12]: 102%
viability, T/C [13]: 109%
viability, T/C [14]: 114%
viability, T/C [15]: 113%
viability, T/C [16]: 73.7%
viability, T/C [17]: 97.1%
viability, T/C [18]: 102%
viability, T/C [19]: 112%
viability, T/C [20]: 115%
viability, T/C [21]: 114%
viability, T/C [22]: 70.3%
viability, T/C [23]: 94.6%
viability, T/C [24]: 101%
viability, T/C [25]: 112%
viability, T/C [26]: 115%
viability, T/C [27]: 113%
viability, T/C [28]: 62.6%
viability, T/C (second compound 3.16 µM, first compound 0.0316 µM): 98.4%
viability, T/C (second compound 3.16 µM, first compound 0.1 µM): 102%
viability, T/C (second compound 3.16 µM, first compound 0.316 µM): 110%
viability, T/C (second compound 3.16 µM, first compound 1 µM): 114%
viability, T/C (second compound 3.16 µM, first compound 3.16 µM): 110%
viability, T/C (second compound 3.16 µM, first compound 10 µM): 47.7%
viability, T/C (second compound 10 µM, first compound 0.0316 µM): 96.6%
viability, T/C (second compound 10 µM, first compound 0.1 µM): 100%
viability, T/C (second compound 10 µM, first compound 0.316 µM): 98.6%
viability, T/C (second compound 10 µM, first compound 1 µM): 94.4%
viability, T/C (second compound 10 µM, first compound 3.16 µM): 70.2%
viability, T/C (second compound 10 µM, first compound 10 µM): 17.4%

IC50 (curve of compound): > 10 µM and 6.14 µM and 6.23 µM
SMILES: CC(Nc1ccc2c(c1)OCCn1cc(N3C(=O)OCC3C(F)F)nc1-2)C(N)=O (stereo unspecified)
viability, T/C (compound 0.0316 µM): 106% [middle of 4 runs]
viability, T/C (compound 0.1 µM): 102% [middle of 4 runs]
viability, T/C (compound 0.316 µM): 107% (2×) and 97.8% and 109%
viability, T/C (compound 1 µM): 108% [middle of 4 runs]

IC50 [29]: 1.72 µM
IC50 [30]: 1.77 µM
IC50 [1]: 1.75 µM
IC50 [2]: 1.76 µM
IC50 [3]: 1.77 µM
IC50 [4]: 1.78 µM
SMILES: CCC(CC)c1cc(NC2CCC(N)C2)n2nccc2n1 (stereo unspecified) + C=CC(=O)N1CCN(c2nc(OCC3CCCN3C)nc3c(F)c(-c4nc(N)cc(C)c4C(F)(F)F)c(Cl)cc23)C(C)C1
viability, T/C [31]: 100%
viability, T/C [32]: 91.7%
viability, T/C [33]: 93.5%
viability, T/C [34]: 93.2%
viability, T/C [35]: 1.09%
viability, T/C [36]: 0.82%
viability, T/C [37]: 96.3%
viability, T/C [38]: 98.3%
viability, T/C [39]: 97.9%
viability, T/C [40]: 97.9%
viability, T/C [41]: 1.58%
viability, T/C [42]: 0.56%
viability, T/C [5]: 93.3%
viability, T/C [6]: 95.7%
viability, T/C [7]: 97.3%
viability, T/C [8]: 100%
viability, T/C [9]: 1.12%
viability, T/C [10]: 0.24%
viability, T/C [11]: 95.9%
viability, T/C [12]: 96.1%
viability, T/C [13]: 99.4%
viability, T/C [14]: 99.6%
viability, T/C [15]: 0.2%
viability, T/C [16]: 0.59%
viability, T/C [17]: 98.5%
viability, T/C [18]: 99.4%
viability, T/C [19]: 94.7%
viability, T/C [20]: 101%
viability, T/C [21]: 1%
viability, T/C [22]: 0.48%
viability, T/C [23]: 106%
viability, T/C [24]: 104%
viability, T/C [25]: 97%
viability, T/C [26]: 99.2%
viability, T/C [27]: 0.64%
viability, T/C [28]: 0.11%

IC50 [29]: < 0.0316 µM
IC50 [30]: < 0.0316 µM
IC50 [1]: < 0.0316 µM
IC50 [2]: < 0.0316 µM
IC50 [3]: < 0.0316 µM
IC50 [4]: < 0.0316 µM
SMILES: CC(=O)OC12COC1CC(O)C1(C)C(=O)C(O)C3=C(C)C(OC(=O)C(O)C(NC(=O)OC(C)(C)C)c4ccccc4)CC(O)(C(OC(=O)c4ccccc4)C21)C3(C)C (stereo unspecified) + C=CC(=O)N1CCN(c2nc(OCC3CCCN3C)nc3c(F)c(-c4nc(N)cc(C)c4C(F)(F)F)c(Cl)cc23)C(C)C1
viability, T/C [31]: 0.81%
viability, T/C [32]: 0.73%
viability, T/C [33]: 1.35%
viability, T/C [34]: 2.03%
viability, T/C [35]: 1.42%
viability, T/C [36]: 1.11%
viability, T/C [37]: 1.77%
viability, T/C [38]: 0.94%
viability, T/C [39]: 1.67%
viability, T/C [40]: 1.93%
viability, T/C [41]: 1.54%
viability, T/C [42]: 1.19%
viability, T/C [5]: 1.41%
viability, T/C [6]: 1.13%
viability, T/C [7]: 1.31%
viability, T/C [8]: 1.79%
viability, T/C [9]: 1.72%
viability, T/C [10]: 0.97%
viability, T/C [11]: 2.46%
viability, T/C [12]: 1.76%
viability, T/C [13]: 0.8%
viability, T/C [14]: 2.06%
viability, T/C [15]: 1.88%
viability, T/C [16]: 1.11%
viability, T/C [17]: 0.97%
viability, T/C [18]: 1.22%
viability, T/C [19]: 0.89%
viability, T/C [20]: 2.24%
viability, T/C [21]: 1.05%
viability, T/C [22]: 1.06%
viability, T/C [23]: 2.41%
viability, T/C [24]: 1.89%
viability, T/C [25]: 1.45%
viability, T/C [26]: 0.87%
viability, T/C [27]: 1.43%
viability, T/C [28]: 1.17%
